Where a SMILES comes first, the peptide text is derived from it.

Assay [1] concerns fmr1 knockout mice. As to the kind of experiment: Species typical behaviors: marble burying and nest building. To be noted: 100 mg/kg i.p. 28 days. The assay is classed as in vivo, mouse.
Assay [2] has as its system fmr1 knockout mice. As to the kind of experiment: Contextual fear conditioning, fmr1 knockout mice. To be noted: fmr1 KO; 100 mg/kg i.p. 28 days. The assay is classed as in vivo, mouse. As for the experimental part: G-2-MePE was administered at the dose of 100 mg/kg i.p. in 0.1 ml saline, once daily for 28 days. Vehicle-treated animals were injected with 0.1 ml saline daily for 28 days. Thereafter, drug or vehicle treatments were stopped and animals were tested on successive days until all tests were completed. Finally, the animals were sacrificed for determining expression of pAkt and pERK
Contextual fear conditioning is the most basic of the conditioning (learning) procedures. It involves placing the animal in a novel environment (dark chamber), providing an aversive stimulus (a 1-sec electric shock at 0.2 mA to the paw), and then removing it. […] Freezing is a species-specific response to fear and is defined as absence of movement except for respiration.
The clinical manifestation of Fragile X Syndrome is mental retardation in which learning and memory may be profoundly impaired. We tested G-2-MePE and vehicle treated fmr1 KO and wild-type animals in a fear-conditioning task in which we measured freezing behavior in response to context. […] Before the test, we observed the mice for their reactions to a 1-sec foot shock at 0.2 mA, and we noted vocalizations, jumping behavior, and excessive running in both genotypes as evidence that they had detected the stimulus.

Another assay relates to 12-month old rats. Nature of the assay: Morris water maze, spatial reference memory. The assay is classed as in vivo, rat. The following applies: 0.96 or 4.8 mg/day s.c. mini-osmotic pump, vs saline. How it is done: We used male Wistar rats 12, 8 or 4 months of age. The Morris water maze test was conducted using a black plastic pool filled to a depth of 25 cm with water colored black with a non-toxic dye. […] The platform remained in that position though the training. The experiment used extra-maze cues (i.e. objects in the room surrounding the pool) that the rats could use to navigate to the platform. Distinctive posters or paintings were hung on the walls. Furniture in the room was not moved during the testing period. The placement of the pool allowed the experimenter an easy access to it from all sides. The pool was emptied and refilled daily during testing, with water at 25° C.+/-2° C. Rats in each group were trained to swim to the submerged platform. The rats received six 60-second trials per day for four consecutive days. A trial began by placing the rat into the water facing the wall of the pool, at one of four start locations (north, south, east, west). The sequence of start locations was chosen pseudorandomly, so that the start location of any given trial was different from that of the previous trial, and no start location was used more than twice during daily training. […] The swim latency for each rat was recorded for each trial for each day of the acquisition and retention phases and changes between phases were examined using Analysis of Variance.

With `C[C@@]1(C(=O)N[C@@H](CCC(=O)O)C(=O)O)CCCN1C(=O)CN` [Example G-2-MePE, Glycyl-L-2-methylprolyl-L-glutamic acid] (HELM PEPTIDE1{G.[C[C@@]1(C(=O)[*:2])CCCN1[*:1]].E}$$$$V2.0), in the assay on fmr1 knockout mice [1] (fmr1 KO), the marble burying behavior result is recorded as “normalized marble burying behavior”; the nest building behavior entry was “increased both marble burying and nest building behaviors”. The marble burying result in the assay on fmr1 knockout mice [1] (wild-type mice) was “no significant effect”. Further, the “freezing behavior, contextual fear conditioning” value in the assay on fmr1 knockout mice [2] is on record as “normalizes the deficit”. The “memory: time needed to reach the platform, retention phase” value in the assay with 12-month old rats was “improved memory”.

Source of the values: patent publication US20150224164A1, “TREATMENT OF AUTISM SPECTRUM DISORDERS USING GLYCYL-L-2-METHYLPROLYL-L-GLUMATIC ACID” (Neuren Pharmaceuticals Limited, priority 2013, published 2015).
